Reference: patent US12269815B2, “Dantrolene prodrugs and methods of their use” (EAGLE RESEARCH LABS LIMITED, priority 2017, dated 2025)
Like-named read-outs stand apart in the source and are kept apart here. Blank lines part the entries; values can stand above or below the compound they belong to.

Tests used:
[1] = not given; remark: listed apart in the source
[2] = cited from earlier work
[3] = Whole-blood pharmacokinetics of Compound 2a in live rats (second analysis); format: in vivo; conditions: 7.5 mg/kg Compound 2a
[4] = Another pharmacokinetic analysis of Compound 2a in live rats (whole blood and plasma; IV, IM, SC); format: in vivo; conditions: 7.5 mg/kg Compound 2a
[5] = design: species or system Harlan Sprague Dawley rats; conditions: rat, in vivo, 7.5 mg/kg
Method: Compound 2a is formulated at 8 mg/mL in 5% aqueous mannitol (as a tonicity modifier), at pH 8.0. The formulation is administered IV, SC, or IM to cannulated Harlan Sprague Dawley rats (3 rats/group) from Envigo RMS, Inc. (Indianapolis, Ind.). […] Whole blood (0.1 mL) is collected via a jugular vein catheter at 0, 0.033 (IV only), 0.083, 0.167, 0.33, 0.66, 1, 3, 6, and 9 hours. […] Samples are then placed on wet ice until centrifugation to remove precipitate. […] Samples are quantified based on standard curves prepared with each analyte in the precipitated whole blood matrix. […] Area Under the Curve (AUC) is calculated using the trapezoidal rule by SigmaPlot 12.5 software.

[6] = rat, in vivo; for % Bioavailability of dantrolene: 7.5 mg/kg
[7] = physchem; conditions: rat, plasma

Compound: Cl.NCC(=O)OCN1C(=O)CN(/N=C/c2ccc(-c3ccc([N+](=O)[O-])cc3)o2)C1=O [Compound 22c]
- half-life of prodrug in rat plasma: 3.2 min
- reconversion in phosphate-buffered saline [1]: 85%

Compound: O=C1CN(/N=C/c2ccc(-c3ccc([N+](=O)[O-])cc3)o2)C(O)=N1 [Dantrolene, 1-{[5-(4-nitrophenyl)-2-furyl]methylideneamino}imidazolidine-2,4-dione]
- solubility in water [2]: very poorly soluble in water

Compound: O=C1CN(/N=C/c2ccc(-c3ccc([N+](=O)[O-])cc3)o2)C(=O)N1COP(=O)([O-])[O-].[Na+].[Na+] [Compound 2a]
- % Bioavailability of dantrolene ([3]; IM): 95.3%
- % Bioavailability of dantrolene ([3]; IV): 100%
- % Bioavailability of dantrolene ([4]; plasma, IM): 56.7%
- % Bioavailability of dantrolene ([4]; plasma, IV): 100%
- % Bioavailability of dantrolene ([4]; plasma, SC): 49.7%
- % Bioavailability of dantrolene ([4]; whole blood, IM): 80.8%
- % Bioavailability of dantrolene ([4]; whole blood, IV): 100%
- % Bioavailability of dantrolene ([4]; whole blood, SC): 64.0%
- appearance of dantrolene in the blood after administration [5]: rapid appearance of dantrolene in the blood
- half-life of prodrug in rat plasma: 82 min
- conversion to dantrolene in phosphate-buffered saline [1]: no conversion was observed
- amount of 2a observed after administration [6]: only trace amounts
- % Bioavailability of dantrolene ([6]; im): 77.8%
- % Bioavailability of dantrolene ([6]; iv): 100%

- half-life at 100 μg/mL [7]: 447 min
Compound: O=C(O)CCC(=O)OCc1ccc(NC(=O)OCN2C(=O)CN(/N=C/c3ccc(-c4ccc([N+](=O)[O-])cc4)o3)C2=O)cc1 [Compound 17b]
